Experimental data taken from patent US20080032940A1, “METHODS FOR REDUCING ANTHRACYCLINE-INDUCED TOXICITY” (priority 2006, published 2008).

Assays:
[1] = test system: male Sprague Dawley rats; assay: Echocardiography in DOX-treated rats (cardiac function test); format: in vivo, rat
Protocol: (§1) In a first set of experiments, male Sprague Dawley rats were divided into the following four treatment groups: (1) PBS control; (2) MitoQ (5 mg/kg, i.p., twice per week); (3) DOX (2.5 mg/kg, i.v.); and (4) DOX plus MitoQ (2.5 mg/kg DOX and 5 mg/kg MitoQ, both i.p.). All agents were administered in PBS for ten weeks. At weeks four, eight, ten and twelve, cardiac function tests were performed. Following the treatments, the rats were sacrificed and hearts were removed for histochemical and biochemical analysis. See FIG. 8 for treatment protocol
In a second set of experiments, a different mitochondria-target antioxidant was assessed, Mito-TEMPOL. Male Sprague Dawley rats were divided into the following four treatment groups: (1) PBS control; (2) Mito-TEMPOL (5 mg/kg, i.p., twice per week); (3) DOX (2.5 mg/kg, i.v.); and (4) DOX plus Mito-TEMPOL (2.5 mg/kg and 5 mg/kg Mito-TEMPOL, both i.p.). All agents were administered in PBS for ten weeks. At weeks four, eight, ten and twelve, cardiac function tests were performed. Following treatment, the rats were sacrificed and hearts were removed for histochemical and biochemical analysis.
Cardiac Function Test: Echocardiography was performed at baseline, four, eight, ten and twelve weeks following the start of treatment. Rats were anesthetized with a mixture of ketamine (75 mg/kg) and medotomidine (0.25 mg/kg). Once anesthetized, the chest was shaved and cardiac rhythm monitored using three limb leads attached to a Vivid 7 from General Electric (Waukesha, Wis.) and a M12L linear array probe.
2-D B mode imaging parameters were as follows: (1) depth, 2.5 cm.; (2) frame rate, 230 frames/second; and (3) second harmonic imaging. For the primary endpoint data, the standard short axis view at the mid-ventricular level were used. Because of the serial nature of comparative measurements, co-registration at this level was ensured by the use of papillary muscles as localizers and obtaining a circular left ventricular slice. Other standard views obtained induced short axis apical slices and short axis basal slices at the mitral valve. […] In addition, Q analysis software (General Electric) of the B mode echo images was used to measure regional radial and circumferential strain. Furthermore, diastolic function was monitored by using pulsed Doppler of the mitral inflow and aortic outflow regions in a standard apical four chamber/five chamber view, as was mitral E wave, A wave, isovolumic relaxation time and mitral E deceleration time.

[2] = test system: caspase-3; assay: Caspase-3 activity in heart tissues of DOX-treated rats; format: in vivo, rat; settings: DOX treatment
Protocol: Caspase-3 Activity: Caspase-3 activity was measured with acetyl Asp-Glu-Val-Asp 7-amido-4-methlylcoumarin (Ac-DEVD-AFC), as described in a kit from Sigma Aldrich (St. Louis, Mo.). Caspase-3 hydrolyzes Ac-DEVD-AFC to release a fluorescent moiety, 7-amino-4-methylcoumarin (AMC). Briefly, treated cells were suspended in 100 μl of lysis buffer and passed through a 24-gauge needle 10 times to ensure complete lysis. The resulting lysate was centrifuged at 4° C. at 10,000 rmp. 50 μl of clear supernatant was used for the activity assay. […] The excitation and emission wavelengths of AMC are 360 nm and 460 nm respectively.
as §1
Caspase-3 was determined as described above in Example 3.

[3] = test system: laboratory animals; settings: in vivo; cited from earlier work
[4] = test system: tumor cell lines (LnCAP, MCF-7, SH-SY5Y and MDA-MB-231); assay: MTT assay, toxicity in tumor cell lines; format: cell-based, human; settings: 10 μM, MCF-7 and SH-SY5Y
Excerpt: In contrast, four tumor cell lines were used herein. The first tumor cell line was a human neuroblastoma cell line, SH-SY5Y, from American Type Culture Collection (ATCC; Rockville, Md.). The second tumor cell line was a human prostate cancer cell line, LnCAP, from ATCC. The third tumor cell line was a human breast cancer cell line, MCF-7, from ATCC. The fourth tumor cell line was a human metastatic breast cancer cell line, MDA-MB-231 from ATCC.
(§2) In a first set of experiments, a dose-response curve to MitoQ was measured in each of the six cell lines described above. Briefly, cells were treated with various concentrations of MitoQ for twenty-four hours. Following treatment, cellular toxicity was measured by a MTT assay as described below.
In a third set of experiments, each of the six cell lines described above were subjected to the following treatments: (1) 10 μM MitoQ; (2) 10 μM CoQ (MitoQ without the phosphonium, which served as a control); and (3) 10 μM triphenylphosphonium (TPP; MitoQ without the ubiquinone or the ubquinol moiety, which also served as a control). Following treatment, cellular toxicity was measured by the MTT assay. […]

[5] = test system: isolated cardiomyocytes and isolated hearts; settings: cited from earlier work
[6] = test system: H9c2 cells; assay: MTT assay, toxicity in normal cells H9c2; format: cell-based, rat; settings: 10 μM
Protocol: (§3) Cell lines: Two normal cell lines were used herein. The first normal cell line was a rat-derived embryonic cardiomyocyte cell line, H9c2, from […] (Manassas, Va.; Catalog No. CRL-1446). The second normal cell line was BAECs from Clonetics Corp. (San Diego, Calif.).
as §2
(§4) In a third set of experiments, each of the six cell lines described above were subjected to the following treatments: (1) 10 μM MitoQ; (2) 10 μM CoQ (MitoQ without the phosphonium, which served as a control); and (3) 10 μM triphenylphosphonium (TPP; MitoQ without the ubiquinone or the ubquinol moiety, which also served as a control). Following treatment, cellular toxicity was measured by the MTT assay.
(§5) MTT Assay: An MIT assay was performed to examine MitoQ's toxicity on normal cells and tumor cells (see Mosmann T, “Rapid colorimetric assay for cellular growth and survival: Application to proliferation and cytotoxicity assays,” J. Immunol. Meth. 65:55-63 (1983)). […] Formazon crystals formed cells were solubilized by adding 200 μl of 0.1N HCl in isopropanol, and absorbance was measured at 570 nm.

[7] = test system: bovine aortic endothelial cells (BAEC); assay: MTT assay, toxicity in normal cells BAEC; format: cell-based; settings: 10 μM; BAECs
Protocol: as §3, §2, §4, §5

COc1cccc2c1C(=O)c1c(O)c3c(c(O)c1C2=O)C[C@@](O)(C(=O)CO)C[C@@H]3O[C@H]1C[C@H](N)[C@H](O)[C@H](C)O1 [DOX, doxorubicin]
decrease of fractional shortening versus control ([1]; DOX 2.5 mg/kg, rats): 18%
decrease of radial strain versus control ([1]; DOX 2.5 mg/kg, rats): 35%
caspase activity in heart tissues [2]: increased with increasing DOX treatment

CC(=O)N[C@@H](CS)C(=O)O [N-acetylcysteine]
efficacy against DOX cardiotoxicity in animals [3]: limited efficacy

Cc1c(C)c2c(c(C)c1O)CC[C@@](C)(CCC[C@H](C)CCC[C@H](C)CCCC(C)C)O2 [α-tocopherol]
efficacy against DOX cardiotoxicity in animals [3]: limited efficacy

coenzyme Q [CoQ]
toxicity (MTT), FIG. 4 [4]: not toxic
DOX-induced cardiomyopathy (echocardiograms, FIG. 9A) ([1]; after 12 weeks of DOX treatment): not
protection of left ventricular function and fractional shortening against DOX cardiotoxicity ([1]; co-administered with DOX, echocardiography): did not significantly protect
effect on DOX-induced toxicity [5]: reversed DOX-induced toxicity
efficacy against DOX cardiotoxicity in animals [3]: not as effective

triphenylphosphonium [TPP, reference compound]
toxicity (MTT), FIG. 4 [4]: not toxic
toxicity (MTT), FIG. 4 [6]: not toxic
toxicity (MTT), FIG. 4 [7]: not toxic
